{
  "source": "ChEMBL document CHEMBL5244255",
  "about": "“An insight on medicinal attributes of 1,2,4-triazoles” (Eur J Med Chem, 2020)",
  "key": {"Candida albicans": {"system": "Candida albicans", "experiment": "Antifungal activity against Candida albicans Y0109 assessed as fungal growth inhibition", "format": "functional"}, "[1]": {"system": "Xanthomonas oryzae pv. oryzae", "experiment": "Antibacterial activity against Xanthomonas oryzae pv. oryzae assessed as bacterial growth inhibition", "format": "functional, organism-based"}, "Trypanosoma cruzi [2]": {"system": "Trypanosoma cruzi", "experiment": "Trypanocidal activity against amastigote stage of Trypanosoma cruzi", "format": "functional, organism-based"}, "Trypanosoma cruzi [3]": {"system": "Trypanosoma cruzi", "experiment": "Trypanocidal activity against epimastigote stage of Trypanosoma cruzi", "format": "functional, organism-based"}, "[4]": {"system": "Mycobacterium tuberculosis", "experiment": "Antimycobacterial activity against Mycobacterium tuberculosis H37Rv", "format": "functional"}, "Staphylococcus aureus": {"system": "Staphylococcus aureus", "experiment": "Antibacterial activity against Staphylococcus aureus assessed as bacterial growth inhibition incubated for 16 hrs", "format": "functional"}, "[5]": {"system": "Mycobacterium tuberculosis", "experiment": "Antimycobacterial activity against Mycobacterium tuberculosis H37Rv measured after 21 days", "format": "functional", "conditions": "504 h, time 21 day"}, "[6]": {"system": "Mycobacterium tuberculosis", "experiment": "Antimycobacterial activity against Mycobacterium tuberculosis H37Rv measured […] by MABA assay", "format": "functional"}, "[7]": {"system": "Mycobacterium tuberculosis", "experiment": "Potency index, ratio of test compound MIC to Pyrazinamide MIC for antimycobacterial activity against Mycobacterium tuberculosis H37Rv", "format": "functional"}, "MDA-MB-231": {"system": "MDA-MB-231", "experiment": "Antiproliferative activity against human MDA-MB-231 cells assessed as cell growth inhibition by MTT assay", "format": "functional, cell-based"}, "Plasmodium falciparum": {"system": "Plasmodium falciparum", "experiment": "Antimalarial activity against Plasmodium falciparum", "format": "functional, organism-based"}, "[8]": {"experiment": "Anticancer activity against human SK-MEL-128 cells assessed as cell growth inhibition incubated for 48 hrs by MTT assay", "format": "functional, cell-based", "conditions": "SK-MEL-128, 48 h"}, "DU-145": {"system": "DU-145", "experiment": "Anticancer activity against human DU-145 cells assessed as cell growth inhibition incubated for 48 hrs by MTT assay", "format": "functional, cell-based", "conditions": "DU-145, 48 h"}, "BT-20": {"system": "BT-20", "experiment": "Anticancer activity against human BT-20 cells assessed as cell growth inhibition incubated for 48 hrs by MTT assay", "format": "functional, cell-based", "conditions": "BT-20, 48 h"}, "A549": {"system": "A549", "experiment": "Anticancer activity against human A549 cells assessed as cell growth inhibition incubated for 48 hrs by MTT assay", "format": "functional, cell-based", "conditions": "A549, 48 h"}, "[9]": {"system": "Mycobacterium tuberculosis", "experiment": "Antimycobacterial activity against Mycobacterium tuberculosis H37Rv measured after 8 to 9 days", "format": "functional", "conditions": "time 8-9 day"}, "[10]": {"experiment": "Inhibition of Mycobacterium tuberculosis shikimate dehydrogenase"}, "[11]": {"conditions": "Plasmodium falciparum, read-out: IC50"}},
  "data": [
    {"smiles": "CCCCCCCCCCCC(=O)OC1CCN(CC(O)(Cn2cncn2)c2ccc(F)cc2F)CC1", "note": "(stereo not drawn)", "values": [
      {"measurement": "MIC80", "setting": "Candida albicans", "value": 9, "unit": "nM"}
    ]},
    {"smiles": "CCCCCCCCCC(=O)OC1CCN(CC(O)(Cn2cncn2)c2ccc(F)cc2F)CC1", "note": "(stereo not drawn)", "values": [
      {"measurement": "MIC80", "setting": "Candida albicans", "value": 9, "unit": "nM"}
    ]},
    {"smiles": "O=C(CSc1nnc(C2CCN(c3ncnc4ccccc34)CC2)n1-c1ccccc1)Nc1ccccc1[N+](=O)[O-]", "values": [
      {"measurement": "EC50", "setting": "[1]", "value": 34.5, "unit": "µg/mL"}
    ]},
    {"smiles": "CC(C)SC1NN=C(/C=C/C=C/c2ccc3c(c2)OCO3)N1C1CCCCC1", "note": "(stereo not drawn)", "values": [
      {"measurement": "IC50", "setting": "Trypanosoma cruzi [2]", "value": 3.61, "unit": "µM"},
      {"measurement": "IC50", "setting": "Trypanosoma cruzi [3]", "value": 3.18, "unit": "µM"}
    ]},
    {"smiles": "O=C(OC1CCN(CC(O)(Cn2cncn2)c2ccc(F)cc2F)CC1)C(F)(F)Cl", "note": "(stereo not drawn)", "values": [
      {"measurement": "MIC80", "setting": "Candida albicans", "value": 9, "unit": "nM"}
    ]},
    {"smiles": "OC1CCC(C(O)c2nnc(-c3ccncc3)[nH]2)CC1O", "note": "(stereo not drawn)", "values": [
      {"measurement": "MIC", "setting": "[4]", "value": 0.59, "unit": "µg/mL"}
    ]},
    {"smiles": "COc1ccc(/C=N/n2c(S)nnc2CNC(=O)c2ccc(C)cc2)cc1", "values": [
      {"measurement": "MIC", "setting": "Staphylococcus aureus", "value": 3.12, "unit": "µg/mL"}
    ]},
    {"smiles": "C#Cc1nnc2c3ccccc3cnn12", "values": [
      {"measurement": "MIC", "setting": "[5]", "value": 0.5, "unit": "µg/mL"}
    ]},
    {"smiles": "COc1ccc(-n2ncn(Cc3cn(Cc4cc(=O)oc5ccc(C)cc45)nn3)c2=O)cc1", "values": [
      {"measurement": "MIC", "setting": "[6]", "value": 1.6, "unit": "µg/mL"},
      {"measurement": "Ratio", "setting": "[7]", "value": 2}
    ]},
    {"smiles": "CC(C)(C)C(=O)OC1CCN(CC(O)(Cn2cncn2)c2ccc(F)cc2F)CC1", "note": "(stereo not drawn)", "values": [
      {"measurement": "MIC80", "setting": "Candida albicans", "value": 9, "unit": "nM"}
    ]},
    {"smiles": "Cc1ccc(-n2nc(C)n(-n3c(-c4cc5ccccc5oc4=O)cs/c3=N\\c3ccccc3)c2=O)cc1", "values": [
      {"measurement": "IC50", "setting": "MDA-MB-231", "value": 0.16, "unit": "µg/mL"}
    ]},
    {"smiles": "COc1ccc(/C=N/n2c(S)nnc2CNC(=O)c2ccccc2)cc1", "values": [
      {"measurement": "MIC", "setting": "Staphylococcus aureus", "value": 3.12, "unit": "µg/mL"}
    ]},
    {"smiles": "CCCC(=O)OC1CCN(CC(O)(Cn2cncn2)c2ccc(F)cc2F)CC1", "note": "(stereo not drawn)", "values": [
      {"measurement": "MIC80", "setting": "Candida albicans", "value": 9, "unit": "nM"}
    ]},
    {"smiles": "Cc1ccc(C(=O)NCc2nnc(S)n2/N=C/c2ccc(Cl)cc2)cc1", "values": [
      {"measurement": "MIC", "setting": "Staphylococcus aureus", "value": 3.12, "unit": "µg/mL"}
    ]},
    {"smiles": "CC(=O)OC1CCN(CC(O)(Cn2cncn2)c2ccc(F)cc2F)CC1", "note": "(stereo not drawn)", "values": [
      {"measurement": "MIC80", "setting": "Candida albicans", "value": 9, "unit": "nM"}
    ]},
    {"smiles": "CC(C)=CCC/C(C)=C/COc1ccc(/C=C/c2nnc3c4ccccc4cnn23)cc1", "values": [
      {"measurement": "MIC", "setting": "[5]", "value": 0.5, "unit": "µg/mL"}
    ]},
    {"smiles": "Cc1nn(-c2ccccc2)c(-n2cncn2)c1-c1cc(-c2ccc(-c3cccs3)cc2)cc2nc3ccccc3n12", "values": [
      {"measurement": "IC50", "setting": "Plasmodium falciparum; [11]", "value": 0.041, "unit": "µg/mL"}
    ]},
    {"smiles": "COc1ccc(/N=c2\\scc(-c3cc4ccccc4oc3=O)n2-n2c(C)nn(-c3ccc(Br)cc3)c2=O)cc1", "values": [
      {"measurement": "IC50", "setting": "MDA-MB-231", "value": 0.16, "unit": "µg/mL"}
    ]},
    {"smiles": "COc1ccc(-n2ncn(Cc3cn(Cc4cc(=O)oc5cc(C)ccc45)nn3)c2=O)cc1", "values": [
      {"measurement": "MIC", "setting": "[6]", "value": 1.6, "unit": "µg/mL"},
      {"measurement": "Ratio", "setting": "[7]", "value": 2}
    ]},
    {"smiles": "COc1ccc(-n2ncn(Cc3cn(Cc4cc(=O)oc5ccc6ccccc6c45)nn3)c2=O)cc1", "values": [
      {"measurement": "MIC", "setting": "[6]", "value": 1.6, "unit": "µg/mL"},
      {"measurement": "Ratio", "setting": "[7]", "value": 2}
    ]},
    {"smiles": "COc1cccc(NC(=O)CSc2nnc(C3CCN(c4ncnc5ccccc45)CC3)n2-c2ccccc2)c1", "values": [
      {"measurement": "EC50", "setting": "[1]", "value": 34.5, "unit": "µg/mL"}
    ]},
    {"smiles": "COc1ccc(-n2ncn(Cc3cn(Cc4cc(=O)oc5ccc(C(C)(C)C)cc45)nn3)c2=O)cc1", "values": [
      {"measurement": "MIC", "setting": "[6]", "value": 1.6, "unit": "µg/mL"},
      {"measurement": "Ratio", "setting": "[7]", "value": 2}
    ]},
    {"smiles": "Nn1c(Cc2ccc(Br)cc2)nn(CC(=O)NNC(=O)c2cc3cc(Cl)cc(Cl)c3oc2=O)c1=O", "values": [
      {"measurement": "IC50", "setting": "[8]", "value": 3.1, "unit": "µg/mL"},
      {"measurement": "IC50", "setting": "DU-145", "value": 3.1, "unit": "µg/mL"},
      {"measurement": "IC50", "setting": "BT-20", "value": 3.1, "unit": "µg/mL"},
      {"measurement": "IC50", "setting": "A549", "value": 3.1, "unit": "µg/mL"}
    ]},
    {"smiles": "CCCCCCC(=O)OC1CCN(CC(O)(Cn2cncn2)c2ccc(F)cc2F)CC1", "note": "(stereo not drawn)", "values": [
      {"measurement": "MIC80", "setting": "Candida albicans", "value": 9, "unit": "nM"}
    ]},
    {"smiles": "COc1ccc(-c2cc(-c3c(C)nn(-c4ccccc4)c3-n3cncn3)n3c(c2)nc2ccccc23)cc1", "values": [
      {"measurement": "IC50", "setting": "Plasmodium falciparum; [11]", "value": 0.041, "unit": "µg/mL"}
    ]},
    {"smiles": "Clc1ccc(-c2nnc3sc(COc4ccc(Br)cc4)nn23)cc1", "values": [
      {"measurement": "MIC", "setting": "[9]", "value": 6.82, "unit": "µg/mL"},
      {"measurement": "IC50", "setting": "[10]", "value": 6.82, "unit": "µg/mL"}
    ]},
    {"smiles": "O=C(CSc1nnc(C2CCN(c3ncnc4ccccc34)CC2)n1-c1ccccc1)Nc1ccc(F)cc1F", "values": [
      {"measurement": "EC50", "setting": "[1]", "value": 34.5, "unit": "µg/mL"}
    ]},
    {"smiles": "OC1(c2nnc(-c3ccncc3)[nH]2)CCCC1", "values": [
      {"measurement": "MIC", "setting": "[4]", "value": 0.59, "unit": "µg/mL"}
    ]},
    {"smiles": "Nn1c(Cc2ccc(Cl)c(Cl)c2)nn(CC(=O)NNC(=O)c2cc3cc(Cl)ccc3oc2=O)c1=O", "values": [
      {"measurement": "IC50", "setting": "[8]", "value": 3.1, "unit": "µg/mL"},
      {"measurement": "IC50", "setting": "DU-145", "value": 3.1, "unit": "µg/mL"},
      {"measurement": "IC50", "setting": "BT-20", "value": 3.1, "unit": "µg/mL"},
      {"measurement": "IC50", "setting": "A549", "value": 3.1, "unit": "µg/mL"}
    ]},
    {"smiles": "Cc1ccc2c(Cn3cc(Cn4cnn(-c5ccccc5)c4=O)nn3)cc(=O)oc2c1", "values": [
      {"measurement": "MIC", "setting": "[6]", "value": 1.6, "unit": "µg/mL"},
      {"measurement": "Ratio", "setting": "[7]", "value": 2}
    ]},
    {"smiles": "Cc1ccc(C(=O)NCc2nnc(S)n2/N=C/c2ccc([N+](=O)[O-])cc2)cc1", "values": [
      {"measurement": "MIC", "setting": "Staphylococcus aureus", "value": 3.12, "unit": "µg/mL"}
    ]},
    {"smiles": "Cc1nn(-c2ccccc2)c(-n2cncn2)c1-c1cc(-c2ccc(F)cc2)cc2nc3ccccc3n12", "values": [
      {"measurement": "IC50", "setting": "Plasmodium falciparum", "value": 0.041, "unit": "µg/mL"},
      {"measurement": "IC50", "setting": "Plasmodium falciparum; [11]", "value": 0.041, "unit": "µg/mL"}
    ]},
    {"smiles": "Cc1nn(-c2ccccc2)c(=O)n1-n1c(-c2cc3ccccc3oc2=O)cs/c1=N\\c1ccccc1", "values": [
      {"measurement": "IC50", "setting": "MDA-MB-231", "value": 0.16, "unit": "µg/mL"}
    ]},
    {"smiles": "C=C(CCCC)C(=O)OC1CCN(CC(O)(Cn2cncn2)c2ccc(F)cc2F)CC1", "note": "(stereo not drawn)", "values": [
      {"measurement": "MIC80", "setting": "Candida albicans", "value": 9, "unit": "nM"}
    ]}
  ]
}
